Test system: 4T1-luc2 mouse breast cancer cells
Assay: dry-ice dead-cells-assay (in vitro model of cryo-induced cell death)
Format: cell-based
Conditions: for binding to dead cells: dead vs living cells
Experimental: The dead cell targeting properties of seven HQ medical compounds (HQ1-7) were assessed in a newly developed in vitro assay of living and dead 4T1-luc2 mouse breast cancer cells. For this 4T1-luc2 cells were cultured to confluence in 12-well plates and a local area of cell death was induced by applying a bar of dry ice to the bottom of the culture well. Subsequently, the cells were incubated with the test compounds, washed and imaged with the Lycor Odyssey.
4T1-Luc cells were seeded onto individual wells from a 12-well cell culture plate and allowed to grow to confluence in RPMI media supplemented with 10% fetal bovine serum. 4T1-luc2 mouse breast cancer cells were used as the adherence of these cells to the bottom of the culture well remains strong after dry-ice treatment. To initiate cryo-induced cell death, media was discarded and dry-ice was applied to the bottom center of each individual well for 15 sec. Subsequently, fresh medium with different concentrations of the HQ medical compounds (HQ1-7) were added and cells were incubated at 37° C. for 15 min. After incubation, the media were discarded and the cells were washed twice with serum free medium and 0.5 ml fresh RPMI was added to each well. Cells were then visualized using a Licor Odyssey equipped with 700 and 800 nm diode laser. Luciferin ([…]) was also added to each well and fluorescence and bioluminescence images were acquired using an IVIS Spectrum (fluorescence: excitation filter: 710 nm, emission filter: 820 nm, exposure time: 90 s, bin: 8, f/stop: 2, field of view: 12.9 cm) (bioluminescence: open filter, exposure time: 30 s, bin: 8, f/stop: 1, field of view: 12.9 cm). Some culture wells were also stained for 15 min with Trypan Blue (0.2% in culture medium) to confirm cell death.
Confluent cultures of 4T1-luc2 breast cancer cells were treated for 15 sec with a focal application of dry-ice to the bottom center of a culture well and were used to examine the dead cell binding properties of the seven HQ medical NIRF compounds. First, however, in order to confirm the presence of a local area of dead cells, the dry-ice treated cultures were incubated with Trypan blue or were treated with luciferin and measured for bioluminescence.
HQ medical #1-7 were examined for their imaging potential of dead cells in the present dry-ice dead-cells-assay. The cells were incubated with the HQ medical compounds with concentrations ranging from 0.5 to 0.001 uM. HQ medical #4-7, all specifically bound to dead cells (FIGS. 5A and B). […] For HQ medical #6 and 7, a signal from the dead cell area could be detected at least 50-fold higher concentrations.

Compound	binding to dead cells	uptake of Trypan Blue at site of focal dry-ice treatment compared to viable cells in the periphery (Trypan Blue 0.2% in culture medium, 15 min, FIG. 4A)
CC1(C)C(/C=C/C2=C(Oc3ccc(S(=O)(=O)O)cc3)C(=C/C=C3/N(CCCCS(=O)(=O)O)c4ccc(S(=O)(=O)[O-])cc4C3(C)C)/CCC2)=[N+](CCCCCC(=O)O)c2ccc(S(=O)(=O)O)cc21 [CW 800]	specific binding to dead cells	–
CCN1C(=CC=CC2=[N+](CCCCCC(=O)O)c3ccc(S(=O)(=O)O)cc3C2(C)C)C(C)(C)c2cc(S(=O)(=O)[O-])ccc21 [CY3]	specific binding to dead cells	–
CCN1/C(=C/C=C/C=C/C2=[N+](CCCCCC(=O)O)c3ccc(S(=O)(=O)O)cc3C2(C)C)C(C)(C)c2cc(S(=O)(=O)[O-])ccc21 [CY5]	specific binding to dead cells	–
CCN1C(=CC=CC=CC=CC2=[N+](CCCCCC(=O)O)c3ccc(S(=O)(=O)O)cc3C2(C)C)C(C)(C)c2cc(S(=O)(=O)[O-])ccc21 [CY7]	specific binding to dead cells	–
CCN1c2cc3c(cc2C(C)=CC1(C)C)C(=CC=CC1=[N+](CCCS(=O)(=O)[O-])c2ccc(S(=O)(=O)[O-])cc2C1(C)CCCC(=O)O)C=C(c1ccccc1)O3.[Na+] (stereo not drawn) [DY-676]	specific binding to dead cells	–
CC[N+](CC)=c1ccc2c(C(C)(C)C)cc(/C=C/C=C3/N(CCCS(=O)(=O)[O-])c4ccc(S(=O)(=O)[O-])cc4C3(C)CCCC(=O)O)oc-2c1.[Na+] (stereo not drawn) [DY-681]	specific binding to dead cells	–
CC[N+](CC)=c1ccc2c(/C=C/C=C/C=C3/N(CCCS(=O)(=O)[O-])c4ccc(S(=O)(=O)[O-])cc4C3(C)CCCC(=O)O)cc(C(C)(C)C)oc-2c1.[Na+] (stereo not drawn) [DY-731]	specific binding to dead cells	–
CCN1c2cc3c(cc2C(C)=CC1(C)C)/C(=C/C=C/C=C/C1=[N+](CCCS(=O)(=O)[O-])c2ccc(S(=O)(=O)[O-])cc2C1(C)CCCC(=O)O)C=C(c1ccccc1)O3.[Na+] (stereo not drawn) [DY-776]	specific binding to dead cells	–
CC1(C)C(/C=C/C=C/C=C/C=C2\N(CCCCS(=O)(=O)[O-])c3ccc4ccccc4c3C2(C)C)=[N+](CCCCS(=O)(=O)[O-])c2ccc3ccccc3c21.[Na+] [ICG]	specific binding to dead cells	–
Cc1cc(-c2ccc(/N=N/c3c(S(=O)(=O)O)cc4cc(S(=O)(=O)O)cc(N)c4c3O)c(C)c2)ccc1/N=N/c1c(S(=O)(=O)O)cc2cc(S(=O)(=O)O)cc(N)c2c1O [Trypan Blue]	–	increased uptake
CC1(C)C(=CC=C2CCCC(C=CC3=[N+](CCC[N+](C)(C)C)c4ccc(S(=O)(=O)O)cc4C3(C)C)=C2Oc2ccc(CCC(=O)O)cc2)N(CCC[N+](C)(C)C)c2ccc(S(=O)(=O)O)cc21 [ZW800]	specific binding to dead cells	–
CY5.5	specific binding to dead cells	–
